Test results as given in patent US5578608A, “Symmetrical diaryl and diheteroanyl cis epoxy alkanes antiviral compounds” (Eli Lilly and Company, priority 1995, dated 1996).
Like-named read-outs stand apart in the source and are kept apart here.

Biological target: T1, HIV-1 protease (Human immunodeficiency virus type 1 group M subtype B, UniProt P04585)
T1 construct: made in house; host or cells: E. coli K12 L507/pHP10D (NRRL B-18560)
Assay: biochemical
Protocol: A culture of E. coli K12 L507/pHP10D was grown to mid-log phase at 32° C. in LB media containing 12.5 μg/ml tetracycline. The cultivation temperature was quickly elevated to 40° C. to induce gene expression, and the cells were allowed to grow for 2.5 hours at this temperature before the culture was quickly chilled on ice. The cells were centrifuged and the cell pellet was resuspended in 20 mL 50 mmol MES buffer (pH 6.0) containing 1 mmol EDTA, 1 mmol DTT, 1 mmol PMSF and 10% glycerol ("Buffer A"). Cells were lysed by sonication using a Fischer Model 300 Dismembrator and a microtip probe. Following centrifugation at 27,000 x g, the supernatant was diluted to a total volume of 60 mL with Buffer A and loaded onto a 2.0×19 cm QAE-Sepharose column (1 mL/min, 4° C.), that had been equilibrated in Buffer A. The column was washed isocratically for 180 min and then eluted with a gradient eluent of 0-1.0M NaCl in Buffer A over 120 min. Enzymatic activity was measured by HPLC using the synthetic peptide SQNYPIV as described in Margolin et al., Biochem. Biophys. Res. Commun., […], 554-560 (1990); the production of the p1 peptide (SQNY) was measured.
N^a -Biotin-[…]N^e -FITC)-OH SEQ ID NO: 1
The following buffers and solutions are used in the Fluorescence HIV-1 Protease Inhibitor Assay:
To each well of a round bottom, 96-well plate is added 20 μL of the Enzyme Solution followed by 10 μL of the compound to be evaluated in a 20% aqueous dimethylsulfoxide solution. Purified HIV-1 protease was obtained as described above. The resulting solution is incubated for one hour at room temperature and then 20 μL of a solution containing the substrate, N^a -Biotin-[…]N^e-FITC)-OH, in MES-ALB buffer ([…]) is added to each well. The solutions are then incubated for 16 hours at room temperature and then each well is diluted with 150 μL of MES-ALB buffer.
To each well of a second round bottom, 96-well Pandex plate is added 25 uL of the Avidin Coated Beads Solution. Then, to each well is added 25 μL of the diluted incubation solutions, prepared above. The solutions are mixed thoroughly and the plates are loaded into a Pandex® machine, washed, evacuated and read. Sample detection was performed by excitation at 485 nm, reading the resulting epifluorescence at 535 nm.

[1] = read-out: Fluorescence Assay average IC50 (marked *) (converted)
[2] = read-out: Fluorescence Assay IC50 (converted)

Row | Compound | IC50 [1] | IC50 [2] | other results
1 | CC(C)[C@H](NC(=O)OCc1ccccc1)C(=O)N[C@@H](Cc1ccccc1)[C@@H]1O[C@@H]1[C@H](Cc1ccccc1)NC(=O)[C@@H](NC(=O)OCc1ccccc1)C(C)C [Example 1, 1,6-Diphenyl-2(S),5(S)-di[N-[2(S)-N(benzyloxycarbonyl)amino-3-methyl-butanoyl]amino]-3,4-cis-epoxyhexane] | 212 nM |  | 
2 | CC[C@H](NC(=O)OCc1ccccc1)C(=O)N[C@@H](Cc1ccccc1)[C@@H]1O[C@@H]1[C@H](Cc1ccccc1)NC(=O)[C@H](CC)NC(=O)OCc1ccccc1 [Example 2, 1,6-Diphenyl-2(S),5(S)-di[N-[2(S)-N(benzyloxycarbonyl)aminobutanoyl]amino]-3,4-cis-epoxyhexane] |  | 14.4 nM | 
3 | N#CC[C@H](NC(=O)OCc1ccccc1)C(=O)N[C@@H](Cc1ccccc1)[C@@H]1O[C@@H]1[C@H](Cc1ccccc1)NC(=O)[C@H](CC#N)NC(=O)OCc1ccccc1 [Example 6, 1,6-Diphenyl-2(S),5(S)-di[N-[2(S)-N(benzyloxycarbonyl)amino-3-cyanopropanoyl]amino]-3,4-cis-epoxyhexane] |  | 880 nM | 
4 | O=C(N[C@@H](Cn1cccn1)C(=O)N[C@@H](Cc1ccccc1)[C@@H]1O[C@@H]1[C@H](Cc1ccccc1)NC(=O)[C@H](Cn1cccn1)NC(=O)OCc1ccccc1)OCc1ccccc1 [Example 7, 1,6-Diphenyl-2(S),5(S)-di[N-[2(S)-N(benzyloxycarbonyl)amino-3-pyrazol-1-ylpropanoyl]amino]3,4-cis-epoxyhexane] |  | 8260 nM | 
5 | CC(C)[C@H](NC(=O)OCc1ccccn1)C(=O)N[C@@H](Cc1ccccc1)[C@@H]1O[C@@H]1[C@H](Cc1ccccc1)NC(=O)[C@@H](NC(=O)OCc1ccccn1)C(C)C [Example 8, 1,6-Diphenyl-2(S),5(S)-di[N-[2(S)-N(pyrid-2-ylmethoxycarbonyl)amino-3-methylbutanoyl]amino]-3,4-cis-epoxyhexane] | 349 nM |  | 
6 | O=C(N[C@@H](Cc1c[nH]cn1)C(=O)N[C@@H](Cc1ccccc1)[C@@H]1O[C@@H]1[C@H](Cc1ccccc1)NC(=O)[C@H](Cc1c[nH]cn1)NC(=O)OCc1ccccc1)OCc1ccccc1 [Example 9, 1,6-Diphenyl-2(S),5(S)-di[N-[2(S)-N(benzyloxycarbonyl)amino-3-imidazol-4-yl-propanoyl]amino]-3,4-cis-epoxyhexane] |  | 84.2 nM | 
7 | CSC[C@@H](NC(=O)OCc1ccccc1)C(=O)N[C@@H](Cc1ccccc1)[C@@H]1O[C@@H]1[C@H](Cc1ccccc1)NC(=O)[C@@H](CSC)NC(=O)OCc1ccccc1 [Example 11, 1,6-Diphenyl-2(S),5(S)-di[N-[2(S)-N(benzyloxycarbonyl)amino-3-methylthiopropanoyl]amino]-3,4-cis-epoxyhexane] |  |  | IC50 (* average IC50, 16 h incubation at room temperature, MES-ALB buffer pH 5.5, normalized to a positive control, read-out: Fluorescence Assay average IC50 (marked *) (converted)): 248 nM
8 | NC(=O)CC[C@H](NC(=O)OCc1ccccc1)C(=O)N[C@@H](Cc1ccccc1)[C@@H]1O[C@@H]1[C@H](Cc1ccccc1)NC(=O)[C@H](CCC(N)=O)NC(=O)OCc1ccccc1 [Example 12, 1,6-Diphenyl-2(S),5(S)-di[N-[2(S)-N(benzyloxycarbonyl)amino-4-carbamoylbutanoyl]amino]-3,4-cis-epoxyhexane] |  | 1730 nM | 
9 | CC(C)C[C@H](NC(=O)OCc1ccccn1)C(=O)N[C@@H](Cc1ccccc1)[C@@H]1O[C@@H]1[C@H](Cc1ccccc1)NC(=O)[C@H](CC(C)C)NC(=O)OCc1ccccn1 [Example 13, 1,6-Diphenyl-2(S),5(S)-di[N-[2(S)-N(pyrid-2-ylmethoxycarbonyl)amino-4-methylpentanoyl]amino]-3,4-cis-epoxyhexane] |  | 2880 nM | 
10 | CC[C@H](C)[C@H](NC(=O)OCc1ccccc1)C(=O)N[C@@H](Cc1ccccc1)[C@@H]1O[C@@H]1[C@H](Cc1ccccc1)NC(=O)[C@@H](NC(=O)OCc1ccccc1)[C@@H](C)CC [Example 14] |  |  | IC50 (16 h incubation at room temperature, MES-ALB buffer pH 5.5, normalized to a positive control, read-out: Fluorescence Assay IC50 (converted)): 236 nM
11 | CC(C)[C@H](NC(=O)N(C)CCc1ccccn1)C(=O)N[C@@H](Cc1ccccc1)[C@@H]1O[C@@H]1[C@H](Cc1ccccc1)NC(=O)[C@@H](NC(=O)N(C)CCc1ccccn1)C(C)C [Example 16, 1,6-Diphenyl-2(S),5(S)-di[N-[2(S)-N-[[N(methyl)-N(pyrid-2-ylethyl)amino]carbonyl]amino-3-methylbutanoyl]amino]-3,4-cis-epoxyhexane] |  |  | inhibition at 1 µg/mL (at 1000 ng/ml, read-out: Fluorescence Assay, given as ICxx (1000): xx is the percent inhibition): 32%
12 | C[C@H](NC(=O)OCc1ccccc1)C(=O)N[C@@H](Cc1ccccc1)[C@@H]1O[C@@H]1[C@H](Cc1ccccc1)NC(=O)[C@H](C)NC(=O)OCc1ccccc1 [Example 20, 1,6-Diphenyl-2(S),5(S)-di[N-[2(S)-N(benzyloxycarbonyl)amino]propanoyl]amino-3,4-cis-epoxyhexane] |  | 803 nM | 

More lines, main results first:

Row | IC50 [1] | IC50 [2] | Compound | other results
13 |  | 5350 nM | N#CC[C@H](NC(=O)c1ccc2ccccc2n1)C(=O)N[C@@H](Cc1ccccc1)[C@@H]1O[C@@H]1[C@H](Cc1ccccc1)NC(=O)[C@H](CC#N)NC(=O)c1ccc2ccccc2n1 [Example 3, 1,6-Diphenyl-2(S),5(S)-di[N-[2(S)-N(quinolin-2-ylcarbonyl)amino-3-cyanopropanoyl]amino]-3,4-cis-epoxyhexane] | 
14 | 59.9 nM |  | CC(C)[C@H](NC(=O)OCc1ccc2ccccc2n1)C(=O)N[C@@H](Cc1ccccc1)[C@@H]1O[C@@H]1[C@H](Cc1ccccc1)NC(=O)[C@@H](NC(=O)OCc1ccc2ccccc2n1)C(C)C [Example 4, 1,6-Diphenyl-2(S),5(S)-di[N-[2(S)-N[(quinolin-2-ylmethoxy)carbonyl]amino-3-methylbutanoyl]amino]-3,4-cis-epoxyhexane] | 
15 |  | 2.19 nM | CC[C@H](NC(=O)OCc1ccc2ccccc2n1)C(=O)N[C@@H](Cc1ccccc1)[C@@H]1O[C@@H]1[C@H](Cc1ccccc1)NC(=O)[C@H](CC)NC(=O)OCc1ccc2ccccc2n1 [Example 10, 1,6-Diphenyl-2(S),5(S)-di[N-[2(S)-N[(quinolin-2-ylmethoxy)carbonyl]aminobutanoyl]amino]-3,4-cis-epoxyhexane] | 
16 |  | 27.3 nM | CC[C@H](C)[C@H](NC(=O)OCc1ccc2ccccc2n1)C(=O)N[C@@H](Cc1ccccc1)[C@@H]1O[C@@H]1[C@H](Cc1ccccc1)NC(=O)[C@@H](NC(=O)OCc1ccc2ccccc2n1)[C@@H](C)CC [Example 15, 1,6-Diphenyl-2(S),5(S)-di[N-[2(S)-N[(quinolin-2-ylmethoxy)carbonyl]amino-3(S)-methylpentanoyl]amino]-3,4-cis-epoxyhexane] | 
17 | 23.1 nM |  | CC(C)[C@H](NC(=O)OCc1ccc2cccc(F)c2n1)C(=O)N[C@@H](Cc1ccccc1)[C@@H]1O[C@@H]1[C@H](Cc1ccccc1)NC(=O)[C@@H](NC(=O)OCc1ccc2cccc(F)c2n1)C(C)C [Example 17, 1,6-Diphenyl-2(S),5(S)-di[N-[2(S)-N[(8-fluoroquinolin-2-ylmethoxy)carbonyl]amino-3-methylbutanoyl]amino]-3,4-cis-epoxyhexane] | 
18 | 8.36 nM |  | CC[C@H](NC(=O)N(C)Cc1ccc2ccccc2n1)C(=O)N[C@@H](Cc1ccccc1)[C@@H]1O[C@@H]1[C@H](Cc1ccccc1)NC(=O)[C@H](CC)NC(=O)N(C)Cc1ccc2ccccc2n1 [Example 18, 1,6-Diphenyl-2(S),5(S)-di[N-[2(S)-N-[[N(methyl)-N(quinolin-2-ylmethyl)amino]carbonyl]aminobutanoyl]amino]-3,4-cis-epoxyhexane] | 
19 | 166 nM |  | CC[C@H](C)[C@H](NC(=O)N(C)Cc1ccc2ccccc2n1)C(=O)N[C@@H](Cc1ccccc1)[C@@H]1O[C@@H]1[C@H](Cc1ccccc1)NC(=O)[C@@H](NC(=O)N(C)Cc1ccc2ccccc2n1)[C@@H](C)CC [Example 19, 1,6-Diphenyl-2(S),5(S)-di[N-[2(S)-N[[N(methyl)-N(quinolin-2-ylmethyl)amino]carbonyl]amino-3(S)methylpentanoyl]amino]-3,4-cis-epoxyhexane] | 
20 |  | 66.1 nM | CCC[C@H](NC(=O)N(C)Cc1ccc2ccccc2n1)C(=O)N[C@@H](Cc1ccccc1)[C@@H]1O[C@@H]1[C@H](Cc1ccccc1)NC(=O)[C@H](CCC)NC(=O)N(C)Cc1ccc2ccccc2n1 [Example 21, 1,6-Diphenyl-2(S),5(S)-di[N-[2(S)-N[[N(methyl)-N(quinolin-2-ylmethyl)amino]carbonyl]aminopentanoyl]amino]-3,4-cis epoxyhexane] | 
